17 compounds from patent US8129371B2, “Thienopyrimidine and pyrazolopyrimidine compounds and their use as mTOR kinase and PI3 kinase inhibitors” (Wyeth LLC, priority 2007, dated 2012) can be followed below.

In one assay the target is T1, Human mTOR (FLAG-TOR) (Homo sapiens, UniProt P42345).
T1 construct: FLAG
The assay can be described thus: Human mTOR kinase assay with purified enzyme, DELFIA format. It counts as biochemical. A digest of the protocol: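 DELFIA readout: Eu-anti-P(T389)-S6K antibody (40 ng/mL, 1 h) on captured His6-S6K from the stopped reaction. Kinase step used purified FLAG-tagged human mTOR with test compound in HEPES (pH 7.4)/MnCl2/DTT buffer, 2 h at room temperature (linear 1–6 h), terminated by EDTA/EGTA.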

Assay [1] addresses T2, PI3K (Homo sapiens, UniProt P42336).
T2 construct: PI3 Kinase α IC50; other: PI3 Kinase α; other: PI3 Kinase α isoform, fluorescence polarization
The assay is described as follows: Fluorescence polarization assay for PI3K. The following applies: read-out: PI3 Kinase α IC50. It counts as biochemical. A digest of the protocol: (§1)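 Fluorescence-polarization competition readout: after 30–60 min of PIP2/ATP turnover in 1% DMSO, a stop mix with GST-GRP (70 nM) and red probe (10 nM) was added.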
Background: Polarisation of emitted light reports the rotation of a fluorescent probe.

The target in assay [2] is T3, PI3K (Homo sapiens, UniProt P48736).
T3 construct: PI3 Kinase γ IC50; other: PI3 Kinase γ; other: PI3 Kinase γ isoform, fluorescence polarization
T3 sequence (P48736 whole entry, canonical isoform): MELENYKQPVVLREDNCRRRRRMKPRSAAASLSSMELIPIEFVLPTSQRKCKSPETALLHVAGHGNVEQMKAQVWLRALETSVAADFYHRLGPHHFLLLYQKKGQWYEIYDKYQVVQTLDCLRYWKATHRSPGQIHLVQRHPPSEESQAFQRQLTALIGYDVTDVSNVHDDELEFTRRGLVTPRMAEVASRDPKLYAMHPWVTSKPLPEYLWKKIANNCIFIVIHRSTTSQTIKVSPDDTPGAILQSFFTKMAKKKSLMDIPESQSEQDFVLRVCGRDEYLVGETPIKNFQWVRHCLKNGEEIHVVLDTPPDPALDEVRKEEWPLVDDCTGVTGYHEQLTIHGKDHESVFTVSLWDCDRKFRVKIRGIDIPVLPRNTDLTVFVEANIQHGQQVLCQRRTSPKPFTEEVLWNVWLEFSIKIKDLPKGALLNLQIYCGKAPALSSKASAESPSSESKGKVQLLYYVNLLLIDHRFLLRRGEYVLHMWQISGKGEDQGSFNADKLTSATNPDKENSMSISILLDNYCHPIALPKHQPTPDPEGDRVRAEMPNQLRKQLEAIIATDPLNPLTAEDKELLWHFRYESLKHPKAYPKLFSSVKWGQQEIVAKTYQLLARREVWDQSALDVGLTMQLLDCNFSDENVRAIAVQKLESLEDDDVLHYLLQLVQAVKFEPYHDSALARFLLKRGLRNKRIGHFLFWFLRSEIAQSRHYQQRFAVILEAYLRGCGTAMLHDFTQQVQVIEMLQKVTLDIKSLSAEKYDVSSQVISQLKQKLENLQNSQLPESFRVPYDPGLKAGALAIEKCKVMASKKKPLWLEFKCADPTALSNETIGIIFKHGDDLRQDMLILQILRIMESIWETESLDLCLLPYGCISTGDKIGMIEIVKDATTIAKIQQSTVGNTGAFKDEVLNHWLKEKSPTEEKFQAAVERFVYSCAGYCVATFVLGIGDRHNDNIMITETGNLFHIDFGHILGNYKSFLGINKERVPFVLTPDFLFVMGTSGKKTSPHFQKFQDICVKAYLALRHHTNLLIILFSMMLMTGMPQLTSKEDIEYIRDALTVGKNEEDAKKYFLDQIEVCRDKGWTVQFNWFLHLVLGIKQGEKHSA
The assay is described as follows: Fluorescence polarization assay for PI3K. It counts as biochemical. To be noted: read-out: PI3 Kinase γ IC50. Summed up:
as §1

The test system of another assay is prostate line LNCap. The assay is described as follows: In vitro cell culture growth assay (MTS), LNCap. It counts as cell-based. The following applies: Homo sapiens, LNCaP, 72 h, LNCap cells, three days after drug treatment. A digest of the protocol: (§2)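 Growth is reported as percent of vehicle-treated control grown in the same plate, with viability determined by metabolic conversion of MTS dye and absorbance read at 490 nm. Compounds were applied one day after plating and left for three days.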

For another assay, the system named is breast line MDA468. The assay is described as follows: In vitro cell culture growth assay (MTS), MDA468. The format is cell-based. The following applies: Homo sapiens, 72 h, MDA468 cells, three days after drug treatment. A digest of the protocol: as §2
[3] abbreviates: purified human mTOR enzyme, DELFIA format.
The mark [4] stands for this setting: PI3 Kinase α isoform, fluorescence polarization.
Where [5] appears, read: PI3 Kinase γ isoform, fluorescence polarization.

Where two headings read alike, the source gives them in different places. Some results are limits rather than exact numbers.

T2 sequence (P42336 whole entry, canonical isoform): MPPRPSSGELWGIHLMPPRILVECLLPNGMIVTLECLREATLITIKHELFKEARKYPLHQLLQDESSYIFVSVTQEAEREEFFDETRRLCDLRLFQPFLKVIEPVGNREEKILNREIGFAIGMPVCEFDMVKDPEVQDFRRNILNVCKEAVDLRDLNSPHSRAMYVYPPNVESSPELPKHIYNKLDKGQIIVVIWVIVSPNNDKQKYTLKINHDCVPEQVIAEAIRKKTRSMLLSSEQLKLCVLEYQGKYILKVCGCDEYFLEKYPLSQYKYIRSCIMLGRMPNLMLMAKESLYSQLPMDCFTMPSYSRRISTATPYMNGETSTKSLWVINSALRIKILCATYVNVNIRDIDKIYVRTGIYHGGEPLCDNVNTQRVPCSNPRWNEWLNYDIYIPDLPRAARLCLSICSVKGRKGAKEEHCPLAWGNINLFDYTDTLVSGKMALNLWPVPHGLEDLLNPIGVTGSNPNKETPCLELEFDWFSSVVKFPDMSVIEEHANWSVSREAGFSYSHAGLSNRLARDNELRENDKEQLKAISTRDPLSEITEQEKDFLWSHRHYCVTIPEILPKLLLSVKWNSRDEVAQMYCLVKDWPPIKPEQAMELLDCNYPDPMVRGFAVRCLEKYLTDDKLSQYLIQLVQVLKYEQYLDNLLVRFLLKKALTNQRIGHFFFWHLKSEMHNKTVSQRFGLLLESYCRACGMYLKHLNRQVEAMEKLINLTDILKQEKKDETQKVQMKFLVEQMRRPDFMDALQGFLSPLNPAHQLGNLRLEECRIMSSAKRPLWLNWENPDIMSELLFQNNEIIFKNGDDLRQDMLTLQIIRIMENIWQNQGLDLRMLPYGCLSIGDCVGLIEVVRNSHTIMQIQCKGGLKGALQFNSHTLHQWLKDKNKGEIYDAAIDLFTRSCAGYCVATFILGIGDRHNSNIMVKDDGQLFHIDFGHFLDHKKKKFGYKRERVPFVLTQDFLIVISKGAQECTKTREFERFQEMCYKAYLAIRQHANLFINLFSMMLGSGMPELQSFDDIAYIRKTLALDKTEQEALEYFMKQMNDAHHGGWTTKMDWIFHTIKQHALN

Usually IC50 stands for the concentration at which inhibition is half-maximal. For `CCn1ncc2c(N3CC4CCC(C3)O4)nc(-c3ccc(NC(=O)NCCCNC)cc3)nc21` [Example 49, 1-{4-[1-ethyl-4-(8-oxa-3-azabicyclo[3.2.1]oct-3-yl)-1H-pyrazolo[3,4-d]pyrimidin-6-yl]phenyl}-3-[3-(methylamino)propyl]urea], the IC50 was 14 nM against Human mTOR (FLAG-TOR); 968 nM at PI3K [1] (PI3 Kinase α); more than 10000 nM at PI3K [2] (PI3 Kinase γ); 1800 nM with prostate line LNCap; 3000 nM in the assay on breast line MDA468.

Turning to `O=C(Nc1ccc(-c2nc(N3C[C@@H]4C[C@H]3CO4)c3cnn(CC(F)(F)F)c3n2)cc1)Nc1ccc(N2CCNCC2)cc1` [Example 393, 1-(4-{4-[(1S,4S)-2-oxa-5-azabicyclo[2.2.1]hept-5-yl]-1-(2,2,2-trifluoroethyl)-1H-pyrazolo[3,4-d]pyrimidin-6-yl}phenyl)-3-(4-piperazin-1-ylphenyl)urea], the IC50 was 1.75 nM against Human mTOR (FLAG-TOR) (setting [3]); 330 nM on PI3K [1] (setting [4]); 3090 nM on PI3K [2] (setting [5]); 1 nM with prostate line LNCap; 14 nM in the assay with breast line MDA468.

For the compound `O=C(Nc1ccc(-c2nc(N3CC4CCC(C3)O4)c3cnn(CC(F)(F)F)c3n2)cc1)NC1CC1` [Example 395, 1-cyclopropyl-3-{4-[4-(8-oxa-3-azabicyclo[3.2.1]oct-3-yl)-1-(2,2,2-trifluoroethyl)-1H-pyrazolo[3,4-d]pyrimidin-6-yl]phenyl}urea], the IC50 stood at 0.48 nM against Human mTOR (FLAG-TOR) (setting [3]); 1460 nM at PI3K [1] (setting [4]); 8000 nM at PI3K [2] (setting [5]); 4 nM in the assay on prostate line LNCap; 60 nM in the assay on breast line MDA468.

On to `CNC(=O)Nc1ccc(-c2nc(N3CC4CCC(C3)O4)c3cnn(C4CCC(O)CC4)c3n2)cc1` (stereo not shown) [Example 107, 1-(4-(4-(8-oxa-3-azabicyclo[3.2.1]octan-3-yl)-1-(4-hydroxycyclohexyl)-1H-pyrazolo[3,4-d]pyrimidin-6-yl)phenyl)-3-methylurea], for which the half-inhibitory concentration (IC50) against Human mTOR (FLAG-TOR) amounted to 0.24 nM; on PI3K [1] (PI3 Kinase α), 1310 nM; at PI3K [2] (PI3 Kinase γ), 5000 nM; in the assay on prostate line LNCap, 48 nM; with breast line MDA468, 190 nM.

In the case of `CNC(=O)Nc1ccc(-c2nc(N3CC4CCC(C3)O4)c3sccc3n2)cc1` [Example 406, 1-methyl-3-{4-[4-(8-oxa-3-azabicyclo[3.2.1]oct-3-yl)thieno[3,2-d]pyrimidin-2-yl]phenyl}urea], the IC50 against Human mTOR (FLAG-TOR) (setting [3]) is 0.94 nM; on PI3K [1] (setting [4]) it was 423 nM; at PI3K [2] (setting [5]), more than 10000 nM; in the assay on prostate line LNCap, 85 nM; in the assay with breast line MDA468, 400 nM.

Consider `Oc1cccc(-c2nc(N3C4CCC3COC4)c3cnn(-c4ccccc4)c3n2)c1` [Example 378, 3-[4-(3-oxa-8-azabicyclo[3.2.1]oct-8-yl)-1-phenyl-1H-pyrazolo[3,4-d]pyrimidin-6-yl]phenol], for which the IC50 against Human mTOR (FLAG-TOR) (setting [3]) was found to be 11.5 nM; at PI3K [1] (setting [4]) it was 407 nM; at PI3K [2] (setting [5]), 1960 nM; with prostate line LNCap it was 820 nM; in the assay on breast line MDA468, 5800 nM.

Take `CN1CCN(c2ccc(NC(=O)Nc3ccc(-c4nc(N5CC6CCC(C5)O6)c5cnn([C@H]6CC[C@H](O)CC6)c5n4)cc3)cc2)CC1` (relative stereo) [Example 404, 1-{4-[1-(trans-4-hydroxycyclohexyl)-4-(8-oxa-3-azabicyclo[3.2.1]oct-3-yl)-1H-pyrazolo[3,4-d]pyrimidin-6-yl]phenyl}-3-[4-(4-methylpiperazin-1-yl)phenyl]urea]: the IC50 was 0.19 nM against Human mTOR (FLAG-TOR) (setting [3]); 93 nM at PI3K [1] (setting [4]); 1140 nM at PI3K [2] (setting [5]); less than 1 nM in the assay with prostate line LNCap; 18 nM with breast line MDA468.

On to `O=C(Nc1ccc(-c2nc(N3CC4CCC(C3)O4)c3cnn(CCO)c3n2)cc1)OCCO` [Example 195, 2-hydroxyethyl {4-[1-(2-hydroxyethyl)-4-(8-oxa-3-azabicyclo[3.2.1]oct-3-yl)-1H-pyrazolo[3,4-d]pyrimidin-6-yl]phenyl}carbamate], for which the IC50 was 4.9 nM against Human mTOR (FLAG-TOR); 1880 nM on PI3K [1] (PI3 Kinase α); more than 10000 nM at PI3K [2] (PI3 Kinase γ); 640 nM in the assay on prostate line LNCap; 1500 nM in the assay on breast line MDA468.

With `COCC(COC)n1ncc2c(N3CC4CCC(C3)O4)nc(-c3ccc(NC(=O)Nc4ccc(N5CCN(C)CC5)cc4)cc3)nc21` [Example 327, 1-(4-{1-[2-methoxy-1-(methoxymethyl)ethyl]-4-(8-oxa-3-azabicyclo[3.2.1]oct-3-yl)-1H-pyrazolo[3,4-d]pyrimidin-6-yl}phenyl)-3-[4-(4-methylpiperazin-1-yl)phenyl]urea], the IC50 against Human mTOR (FLAG-TOR) (setting [3]) was found to be 3.75 nM; on PI3K [1] (setting [4]), 764 nM; at PI3K [2] (setting [5]), 3490 nM; in the assay with prostate line LNCap, 3 nM; with breast line MDA468, 50 nM.

For the compound `CCn1nc(CN2CCN(C)CC2)c2c(N3CC4CCC(C3)O4)nc(-c3ccc(NC(=O)NC)cc3)nc21` [Example 353, 1-(4-{1-ethyl-3-[(4-methylpiperazin-1-yl)methyl]-4-(8-oxa-3-azabicyclo[3.2.1]oct-3-yl)-1H-pyrazolo[3,4-d]pyrimidin-6-yl}phenyl)-3-methylurea], the IC50 at Human mTOR (FLAG-TOR) (setting [3]) was 15 nM; at PI3K [1] (setting [4]), 1560 nM; on PI3K [2] (setting [5]), more than 10000 nM; with prostate line LNCap, 700 nM; with breast line MDA468 it was 1200 nM.

Consider `O=C(Nc1ccc(CO)cc1)Nc1ccc(-c2nc(N3C4CCC3COC4)c3cnn(CC(F)(F)F)c3n2)cc1` [Example 269, 1-[4-(hydroxymethyl)phenyl]-3-{4-[4-(3-oxa-8-azabicyclo[3.2.1]oct-8-yl)-1-(2,2,2-trifluoroethyl)-1H-pyrazolo[3,4-d]pyrimidin-6-yl]phenyl}urea], for which the IC50 at Human mTOR (FLAG-TOR) was 0.079 nM; at PI3K [1] (PI3 Kinase α) it was 117 nM; at PI3K [2] (PI3 Kinase γ), 2130 nM; in the assay with prostate line LNCap it was less than 1 nM; with breast line MDA468, less than 1 nM.

Take `CCn1ncc2c(N3CC4CCC(C3)O4)nc(-c3ccc(NC(=O)NCCNC)cc3)nc21` [Example 174, 1-{4-[1-ethyl-4-(8-oxa-3-azabicyclo[3.2.1]oct-3-yl)-1H-pyrazolo[3,4-d]pyrimidin-6-yl]phenyl}-3-[2-(methylamino)ethyl]urea]: the IC50 at Human mTOR (FLAG-TOR) amounted to 4.7 nM; on PI3K [1] (PI3 Kinase α) it was 232 nM; at PI3K [2] (PI3 Kinase γ) it was 4980 nM; in the assay on prostate line LNCap it was 190 nM; in the assay with breast line MDA468, 700 nM.

Turning to `COC(=O)N1CCC(n2ncc3c(N4CC5CCC(C4)O5)nc(-c4ccc(NC(=O)NCCN)cc4)nc32)CC1` [Example 168, methyl 4-[6-(4-{[(2-aminoethyl)carbamoyl]amino}phenyl)-4-(8-oxa-3-azabicyclo[3.2.1]oct-3-yl)-1H-pyrazolo[3,4-d]pyrimidin-1-yl]piperidine-1-carboxylate], the IC50 turned out to be 3.15 nM at Human mTOR (FLAG-TOR); 218 nM on PI3K [1] (PI3 Kinase α); 3220 nM on PI3K [2] (PI3 Kinase γ); 1500 nM in the assay on prostate line LNCap; 9000 nM in the assay with breast line MDA468.

`O=C(Nc1ccncc1)Nc1ccc(-c2nc(N3CC4CCC(C3)O4)c3cnn(Cc4ccccc4)c3n2)cc1` [Example 79, 1-{4-[1-benzyl-4-(8-oxa-3-azabicyclo[3.2.1]oct-3-yl)-1H-pyrazolo[3,4-d]pyrimidin-6-yl]phenyl}-3-pyridin-4-ylurea]: the IC50 at Human mTOR (FLAG-TOR) was 1.9 nM; at PI3K [1] (PI3 Kinase α), 1980 nM; at PI3K [2] (PI3 Kinase γ), more than 10000 nM; with prostate line LNCap, 20 nM; in the assay with breast line MDA468 it was 150 nM.

Take `COC(=O)N1CCC(n2ncc3c(N4CC5CCC(C4)O5)nc(-c4ccc(NC(=O)OCCN(C)C)cc4)nc32)CC1` [Example 115, methyl 4-{6-[4-({[2-(dimethylamino)ethoxy]carbonyl}amino)phenyl]-4-(8-oxa-3-azabicyclo[3.2.1]oct-3-yl)-1H-pyrazolo[3,4-d]pyrimidin-1-yl}piperidine-1-carboxylate]: the half-maximal inhibitory concentration (IC50) against Human mTOR (FLAG-TOR) was 360 nM; on PI3K [1] (PI3 Kinase α), 5060 nM; at PI3K [2] (PI3 Kinase γ), 8930 nM; in the assay on prostate line LNCap it was 1600 nM; with breast line MDA468 it was 4600 nM.

For `CNC(=O)Nc1ccc(-c2nc(N3CC4CCC(C3)O4)c3cnn(Cc4ccccc4)c3n2)cc1` [Example 77, 1-{4-[1-benzyl-4-(8-oxa-3-azabicyclo[3.2.1]oct-3-yl)-1H-pyrazolo[3,4-d]pyrimidin-6-yl]phenyl}-3-methylurea], the IC50 was 2.2 nM on Human mTOR (FLAG-TOR); 2100 nM at PI3K [1] (PI3 Kinase α); more than 10000 nM at PI3K [2] (PI3 Kinase γ); 120 nM in the assay with prostate line LNCap; 700 nM in the assay on breast line MDA468.

Regarding `CNC(=O)Nc1ccc(-c2nc(N3CC4CCC(C3)O4)c3cnn(C4COCOC4)c3n2)cc1` [Example 385, 1-{4-[1-(1,3-dioxan-5-yl)-4-(8-oxa-3-azabicyclo[3.2.1]oct-3-yl)-1H-pyrazolo[3,4-d]pyrimidin-6-yl]phenyl}-3-methylurea], the IC50 against Human mTOR (FLAG-TOR) (setting [3]) was 9.95 nM; on PI3K [1] (setting [4]) it was 4030 nM; at PI3K [2] (setting [5]), more than 10000 nM; in the assay with prostate line LNCap it was 1000 nM; in the assay on breast line MDA468, 4700 nM.
